Data reported in patent US8273773B2 (priority 2008, dated 2012).

Experiments:
[1] = target: T1, HCV polymerase (NS5B570n-Con1) (Hepatitis C virus genotype 1b, UniProt Q9WMX2); test: biochemical; parameters: species or system HCV Con1 strain; settings: IC50 HCV NS5B RNA Polymerase Assay, values without asterisk; 20 nM NS5B570n-Con1 enzyme, 20 nM cIRES RNA template;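 further: recombinant His-tagged enzyme from E. coli, radiolabeled nucleotide incorporation into acid-insoluble RNA read by scintillation after filtration, no-enzyme background subtracted, activity relative to positive control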
T1 construct: contains a 21 amino acid deletion at the C-terminus relative to the full-length HCV polymerase; 6-histidine (N); made in house; host or cells: E. coli strain BL21(DE) pLysS (pET17b)

`COc1c(C(=O)c2ccc(O)cc2)cc(-c2ccc[nH]c2=O)cc1C(C)(C)C` [I-55] gave an IC50 [1] of 59 nM and a melting point of 185 to 187 °C.
`COc1ccc(-c2ccc[nH]c2=O)c(F)c1C(C)(C)C` [I-56, 3-(3-tert-Butyl-2-fluoro-4-methoxy-phenyl)-1H-pyridin-2-one] showed an IC50 [1] of 136 nM and a melting point of 164.5 to 166 °C.
`COc1c(C(=O)c2sccc2C)cc(-c2ccc[nH]c2=O)cc1C(C)(C)C` [I-57] gave an IC50 [1] of 61 nM and a melting point of 123.3 to 125.5 °C.
For `COc1c(NC(=O)c2ccccc2)cc(-c2ccc[nH]c2=O)cc1C(C)(C)C` [I-58], the IC50 [1] was 34 nM and the melting point was 212 to 216 °C.
Work on `COc1c(C(=O)c2cccc(N)c2)cc(-c2ccc[nH]c2=O)cc1C(C)(C)C` [I-59, 3-[3-(3-amino-benzoyl)-5-tert-butyl-4-methoxy-phenyl]-1H-pyridin-2-one] yielded an IC50 [1] of 9 nM and a melting point of 145 to 150 °C.
`COc1ccc(-c2ccc[nH]c2=O)cc1C1(C)CC1` [I-61] gave an IC50 [1] of 1230 nM and a melting point of 194 to 195 °C.
Work on `COc1ccc(-c2ccc[nH]c2=O)cc1C(C)(C)OC` [I-62] yielded an IC50 [1] of 4130 nM and a melting point of 154 to 155 °C.
With `COc1c(C(=O)c2cccc(C(N)=O)c2)cc(-c2ccc[nH]c2=O)cc1C(C)(C)C` [I-63] the IC50 [1] was 10 nM and the melting point was 150 to 160 °C.
In the case of `COc1c(CCc2ccc(NS(C)(=O)=O)cc2)cc(-c2ccc(C)[nH]c2=O)cc1C(C)(C)C` [I-64, N-(4-{2-[3-tert-Butyl-2-methoxy-5-(6-methyl-2-oxo-1,2-dihydro-pyridin-3-yl)-phenyl]-ethyl}-phenyl)-methanesulfonamide], the IC50 [1] is reported as 8 nM and the melting point is reported as 239 to 241 °C.
For `COc1c(C(=O)c2cccc(CNS(C)(=O)=O)c2)cc(-c2ccc[nH]c2=O)cc1C(C)(C)C` [I-65], the IC50 [1] was 30 nM and the melting point was 110 to 115 °C.
`COc1c(CCc2ccc(NS(C)(=O)=O)cc2)cc(-c2cc(F)c[nH]c2=O)cc1C(C)(C)C` [I-67] gave an IC50 [1] of 10 nM and a melting point of 125 to 130 °C.
`COc1c(C(=O)Nc2ccccc2)cc(-c2ccc[nH]c2=O)cc1C(C)(C)C` [I-68] gave an IC50 [1] of 107 nM and a melting point of 288 to 290 °C.
With `COc1c(C(=O)Nc2ccc(NS(C)(=O)=O)cc2C)cc(-c2ccc[nH]c2=O)cc1C(C)(C)C` [I-69, 3-tert-Butyl-N-(4-methanesulfonylamino-2-methyl-phenyl)-2-methoxy-5-(2-oxo-1,2-dihydro-pyridin-3-yl)-benzamide] the IC50 [1] was 13 nM and the melting point was 278 to 280 °C.
`COc1c(NC(=O)c2ccc(N)cc2)cc(-c2ccc[nH]c2=O)cc1C(C)(C)C` [I-72] gave an IC50 [1] of 34 nM and a melting point of 190 to 193 °C.
Compound `CC(C)(C)c1cc(-c2ccc[nH]c2=O)cc(NC(=O)c2ccc(NS(C)(=O)=O)cc2)c1F` [I-73, N-[3-tert-Butyl-2-fluoro-5-(2-oxo-1,2-dihydro-pyridin-3-yl)-phenyl]-4-methanesulfonylamino-benzamide] has an IC50 [1] of 54 nM and a melting point of 286 to 288 °C.
For `CC(C)(C)c1cc(CCc2ccc(NS(C)(=O)=O)cc2)cc(-c2ccc[nH]c2=O)c1` [I-74], the IC50 [1] was 25 nM and the melting point was 211 to 213 °C.
In the case of `COc1c(C(=O)Nc2ccc(CNS(C)(=O)=O)cc2)cc(-c2ccc[nH]c2=O)cc1C(C)(C)C` [I-76], the IC50 [1] is reported as 62 nM and the melting point is reported as 213 to 216 °C.
`CC(=O)Nc1c(CCc2ccc(NS(C)(=O)=O)cc2)cc(C(C)(C)C)cc1-c1ccc[nH]c1=O` [I-80, N-[4-tert-Butyl-2-[2-(4-methanesulfonylamino-phenyl)-ethyl]-6-(2-oxo-1,2-dihydro-pyridin-3-yl)-phenyl]-acetamide] showed an IC50 [1] of 97 nM and a melting point of 180 to 182 °C.
In the case of `COc1c(NC(=O)c2ccc(NS(C)(=O)=O)cc2)cc(-c2cc(F)c[nH]c2=O)cc1C(C)(C)C` [I-81], the IC50 [1] is reported as 22 nM and the melting point is reported as 272 to 274 °C.
Work on `COc1c(NC(=O)c2ccc(NS(C)(=O)=O)cc2)cc(-c2ccc[nH]c2=O)cc1C1(C)CC1` [I-82] yielded an IC50 [1] of 6 nM and a melting point of 254 to 256 °C.
In the case of `CC(=O)Nc1ccc(CCc2cc(-c3ccc[nH]c3=O)cc(C(C)(C)C)c2)cc1` [I-83], the IC50 [1] is reported as 125 nM and the melting point is reported as 218 to 220 °C.
In the case of `COc1c(C(=O)c2ccnc(N)c2)cc(-c2ccc[nH]c2=O)cc1C(C)(C)C` [I-84, 3-[3-(2-Amino-pyridine-4-carbonyl)-5-tert-butyl-4-methoxy-phenyl]-1H-pyridin-2-one], the IC50 [1] is reported as 32 nM and the melting point is reported as 140 to 145 °C.
Work on `CNC(=O)Nc1ccc(CCc2cc(-c3ccc[nH]c3=O)cc(C(C)(C)C)c2)cc1` [I-86] yielded an IC50 [1] of 278 nM and a melting point of 237 to 239 °C.
`CC(C)(C)c1cc(CCc2ccc(NS(C)(=O)=O)cc2)c(C#N)c(-c2ccc[nH]c2=O)c1` [I-87, N-(4-{2-[5-tert-butyl-2-cyano-3-(2-oxo-1,2-dihydro-pyridin-3-yl)-phenyl]-ethyl}-phenyl)-methanesulfonamide] showed an IC50 [1] of 13 nM and a melting point of 128 to 130 °C.
`CC(C)(C)c1cc(CCc2ccc(NS(C)(=O)=O)cc2)cc(-c2cc(F)c[nH]c2=O)c1` [I-94] gave an IC50 [1] of 10 nM and a melting point of 191 to 193 °C.
Compound `CC(C)(C)c1cc(CCc2ccc(NS(C)(=O)=O)cc2)c(N)c(-c2ccc[nH]c2=O)c1` [I-98, N-(4-{2-[2-Amino-5-tert-butyl-3-(2-oxo-1,2-dihydro-pyridin-3-yl)-phenyl]-ethyl}-phenyl)-methanesulfonamide] has an IC50 [1] of 7 nM and a melting point of 140 to 142 °C.
`COc1c(CCc2ccc(N)cc2)cc(-c2ccc[nH]c2=O)cc1C1(C)CC1` [I-99, 3-[3-[2-(4-amino-phenyl)-ethyl]-4-methoxy-5-(1-methyl-cyclopropyl)-phenyl]-1H-pyridin-2-one] gave an IC50 [1] of 590 nM and a melting point of 209 to 211 °C.
With `COc1c(C(=O)c2cccc(NS(C)(=O)=O)c2)cc(-c2ccc[nH]c2=O)cc1C(C)(C)C` [I-100, N-{3-[3-tert-Butyl-2-methoxy-5-(2-oxo-1,2-dihydro-pyridin-3-yl)-benzoyl]-phenyl}-methanesulfonamide] the IC50 [1] was 16 nM and the melting point was 261 to 263 °C.
`COc1c(C(=O)NC2CCCCC2)cc(-c2ccc[nH]c2=O)cc1C(C)(C)C` [I-101] showed an IC50 [1] of 753 nM and a melting point of 136 to 138 °C.
`COc1c(CCc2ccc(NS(C)(=O)=O)cc2F)cc(-c2ccc[nH]c2=O)cc1C(C)(C)C` [I-102, N-(4-{2-[3-tert-Butyl-2-methoxy-5-(2-oxo-1,2-dihydro-pyridin-3-yl)-phenyl]-ethyl}-3-fluoro-phenyl)-methanesulfonamide] gave an IC50 [1] of 8 nM and a melting point of 120 to 122 °C.
For `COc1c(CCc2ccc(NS(C)(=O)=O)c(F)c2)cc(-c2ccc[nH]c2=O)cc1C(C)(C)C` [I-103], the IC50 [1] was 8 nM and the melting point was 111 to 113 °C.
`COc1c(C(=O)c2cccc(CN)c2)cc(-c2ccc[nH]c2=O)cc1C(C)(C)C` [I-106] gave an IC50 [1] of 24 nM and a melting point of 110 to 115 °C.
For `CC(C)(C)c1cc(-c2ccc[nH]c2=O)cc(S(=O)(=O)c2ccccc2)c1` [I-107, 3-(3-Benzenesulfonyl-5-tert-butyl-phenyl)-1H-pyridin-2-one], the IC50 [1] was 2490 nM and the melting point was 252 to 253 °C.
Compound `COc1c(CCc2ccc(NS(C)(=O)=O)cc2)cc(-c2ccc[nH]c2=O)cc1C1(C)CC1` [I-108, N-(4-{2-[2-Methoxy-3-(1-methyl-cyclopropyl)-5-(2-oxo-1,2-dihydro-pyridin-3-yl)-phenyl]-ethyl}-phenyl)-methanesulfonamide] has an IC50 [1] of 6 nM and a melting point of 192 to 194 °C.
`COc1c(CCc2ccc(NS(C)(=O)=O)cc2C)cc(-c2ccc[nH]c2=O)cc1C(C)(C)C` [I-109, N-(4-{2-[3-tert-Butyl-2-methoxy-5-(2-oxo-1,2-dihydro-pyridin-3-yl)-phenyl]-ethyl}-3-methyl-phenyl)-methanesulfonamide] gave an IC50 [1] of 7 nM and a melting point of 240 to 242 °C.
`COc1c(CCc2ccc(NS(C)(=O)=O)c(C)c2)cc(-c2ccc[nH]c2=O)cc1C(C)(C)C` [I-110] showed an IC50 [1] of 16 nM and a melting point of 114 to 116 °C.
With `COc1c(C(=O)Nc2cccc(CNS(C)(=O)=O)c2)cc(-c2ccc[nH]c2=O)cc1C(C)(C)C` [I-112, 3-tert-Butyl-N-[3-(methanesulfonylamino-methyl)-phenyl]-2-methoxy-5-(2-oxo-1,2-dihydro-pyridin-3-yl)-benzamide] the IC50 [1] was 48 nM and the melting point was 145 to 147 °C.
For `CC(C)(C)c1cc(CCc2ccc(NS(C)(=O)=O)cn2)c(C#N)c(-c2ccc[nH]c2=O)c1` [I-114, N-(6-{2-[5-tert-Butyl-2-cyano-3-(2-oxo-1,2-dihydro-pyridin-3-yl)-phenyl]-ethyl}-pyridin-3-yl)-methanesulfonamide], the IC50 [1] was 15 nM and the melting point was 143 to 145 °C.
Work on `CCOc1cc(NS(C)(=O)=O)ccc1C(=O)Nc1cc(-c2ccc[nH]c2=O)cc(C(C)(C)C)c1OC` [I-115] yielded an IC50 [1] of 9 nM and a melting point of 290 to 292 °C.
Work on `COc1c(NC(=O)c2ccc(NS(C)(=O)=O)cc2Cl)cc(-c2ccc[nH]c2=O)cc1C(C)(C)C` [I-116] yielded an IC50 [1] of 11 nM and a melting point of 263 to 265 °C.
`CC(C)(C)c1cc(CCc2ccc(NS(C)(=O)=O)cc2)c(OCCO)c(-c2ccc[nH]c2=O)c1` [I-118, N-(4-{2-[5-tert-Butyl-2-(2-hydroxy-ethoxy)-3-(2-oxo-1,2-dihydro-pyridin-3-yl)-phenyl]-ethyl}-phenyl)-methanesulfonamide] showed an IC50 [1] of 15 nM and a melting point of 223 to 225 °C.
Compound `COc1c(NC(=O)c2ccc(N)c(F)c2)cc(-c2ccc[nH]c2=O)cc1C(C)(C)C` [I-120] has an IC50 [1] of 3 nM and a melting point of 283 to 285 °C.
Compound `COc1c(NC(=O)c2ccc(NS(C)(=O)=O)c(F)c2)cc(-c2ccc[nH]c2=O)cc1C(C)(C)C` [I-121] has an IC50 [1] of 7 nM and a melting point of 270 to 272 °C.
